Measurements published in patent publication US4198502A, “Aminopyrrole derivatives” (Gruppo Lepetit S.p.A., priority 1973, dated 1980).

Legend:
[1] = acute toxicity (LD50), procedure of Lichtfield and Wilcoxon; conditions: mouse, in vivo, po, mice
Experimental: (§1) An aspect of the anti-inflammatory utility was evidenced by means of the carrageenin-induced edema test in rats, which was performed according to the methodology described by C. A. Winter et al., Proc. Soc. Exptl. Biol. Med., 111, 544, 1962. […] It is also to be noted that the toxicities of the aminopyrrole derivatives which are the object of the present invention are very low; with few exceptions, their LD50 values are always higher than 1000 mg/kg p.o. in mice. Toxicities were determined according to the procedure described by Lichtfield and Wilcoxon, J. Pharm. Exp. Therm., 96, 99, 1949.

[2] = test system: carrageenin-induced edema; assay: carrageenin-induced edema test in rats (anti-inflammatory); format: in vivo; conditions: Rattus norvegicus, po, read-out: % Decrease of the induced edema; for inhibition in vivo at 5 mg/kg: 5 mg/kg p.o.; for inhibition in vivo at 10 mg/kg: 10 mg/kg p.o.; for inhibition in vivo at 20 mg/kg: 20 mg/kg p.o.; for inhibition in vivo at 50 mg/kg: 50 mg/kg p.o.; for inhibition in vivo at 100 mg/kg: 100 mg/kg p.o.; for inhibition in vivo at 200 mg/kg: 200 mg/kg p.o.
Experimental: as §1
The following Table summarizes the aforementioned anti-inflammatory action and LD50 values.

[3] = CNS-depressant utility, general method of S. Irwin; conditions: in vivo
Source text: This characteristic was investigated according to the general method proposed by S. Irwin, Psychopharmacologia (Berl.), 13, 222, 1968. […] This is undoubtedly another vary favorable characteristic of the inventive compounds, as a certain sedative and myorelaxing effect is useful in patients affected by severe inflammatory disease.

Row | Structure (SMILES) | LD50 [1] | inhibition in vivo at 5 mg/kg [2] | inhibition in vivo at 10 mg/kg [2] | inhibition in vivo at 20 mg/kg [2] | inhibition in vivo at 50 mg/kg [2] | inhibition in vivo at 100 mg/kg [2] | inhibition in vivo at 200 mg/kg [2] | sedative and myorelaxing activity [3]
1 | CC(=O)c1c(C)[nH]c(-c2ccccc2)c1N.Cl [Example 1, 4-Acetyl-3-amino-5-methyl-2-phenylpyrrole hydrochloride] | > 1000 mg/kg | 23.4% | 32.5% | 39% | 43.8% | 58.9% | 76.6% | good degree of sedative and myorelaxing activity
2 | CCOC(=O)c1c(C)[nH]c(-c2ccccc2)c1N.Cl [Example 2, 3-Amino-4-carbethoxy-5-methyl-2-phenylpyrrole hydrochloride] | > 1000 mg/kg |  |  |  |  | 36.5% | 44.3% | 
3 | Cc1[nH]c(-c2ccccc2)c(N)c1C(=O)c1ccccc1 [Example 3, 3-Amino-4-benzoyl-5-methyl-2-phenylpyrrole] | > 1000 mg/kg |  |  |  |  | 40.6% | 53.9% | 
4 | CCOC(=O)c1c[nH]c(-c2ccccc2)c1N.Cl [Example 6, 3-Amino-4-carbethoxy-2-phenylpyrrole hydrochloride] | > 1000 mg/kg |  |  |  |  | 25.7% | 35% | 
5 | CC(=O)c1c(C)[nH]c(-c2ccc(C)cc2)c1N [Example 13, 4-Acetyl-3-amino-5-methyl-2-(p-tolyl)-pyrrole] | > 1000 mg/kg | 23.2% | 31.9% | 43.5% | 50.7% | 69.6% | 75.4% | 
6 | COc1ccc(-c2[nH]c(C)c(C(C)=O)c2N)cc1 [Example 14, 4-Acetyl-3-amino-2-(p-methoxyphenyl)-5-methylpyrrole] | > 1000 mg/kg | 23% | 31.1% | 35.1% | 41.9% | 55.4% | 67.6% | 
7 | CCOC(=O)c1c(C)[nH]c(-c2ccc(C)cc2)c1N.Cl [Example 15, 3-Amino-4-carbethoxy-5-methyl-2-(p-tolyl)-pyrrole hydrochloride] | > 1000 mg/kg |  |  |  | 29.6% | 40.8% | 58.3% | good degree of sedative and myorelaxing activity
8 | CC(=O)c1c(C)[nH]c(-c2ccc(F)cc2)c1N [Example 17, 4-Acetyl-3-amino-2-(p-fluorophenyl)-5-methylpyrrole] | > 1000 mg/kg |  |  |  |  | 35.4% | 47.9% | 
9 | CCOC(=O)c1c(N)c[nH]c1C.Cl [Example 19, 3-Amino-4-carbethoxy-5-methylpyrrole hydrochloride] | 500 mg/kg |  |  |  | 24.3% | 45.9% |  | 
10 | Cc1[nH]c(-c2ccccc2)c(N)c1C(=O)C(C)C [Example 20, 3-Amino-4-isobutyryl-5-methyl-2-phenylpyrrole] | > 1000 mg/kg |  |  |  | 24.2% | 37.3% | 44.9% | 
11 | CCC(=O)c1c(C)[nH]c(-c2ccccc2)c1N [Example 21, 3-Amino-5-methyl-2-phenyl-4-propionylpyrrole] | 500 mg/kg |  |  | 25.3% | 36% | 43% |  | 
12 | COc1ccc(C(=O)c2c(C)[nH]c(-c3ccccc3)c2N)cc1 [Example 24, 3-Amino-4-(p-methoxybenzoyl)-5-methyl-2-phenylpyrrole] | 500 mg/kg |  |  | 20.6% | 32.3% | 42.2% |  | 
13 | CC(=O)c1c(C)[nH]c(-c2ccc(Cl)cc2)c1N [Example 26, 4-Acetyl-3-amino-2-(p-chlorophenyl)-5-methylpyrrole] | > 1000 mg/kg |  |  | 29.2% | 43.1% | 58.5% | 71% | 
14 | CC(=O)c1c(C)[nH]c(-c2ccccc2C)c1N [Example 29, 4-Acetyl-3-amino-2-(o-tolyl)-5-methylpyrrole] | > 1000 mg/kg |  |  |  | 26.4% | 33.8% | 42.6% | 
15 | CNC(=O)c1c(C)[nH]c(-c2ccccc2)c1N.Cl [Example 31, 3-Amino-5-methyl-4-methylcarbamoyl-2-phenylpyrrole hydrochloride] | ~1000 mg/kg |  |  |  | 26.1% | 34.8% | 42% | 
16 | CCCC(=O)c1c(CCC)[nH]c(-c2ccccc2)c1N.Cl [Example 34, 3-Amino-4-butyryl-2-phenyl-5-propylpyrrole hydrochloride] | ~1000 mg/kg |  |  |  | 39.1% | 50% | 61.3% | 
17 | CCCC(=O)c1c(C)[nH]c(-c2ccccc2)c1N.Cl [Example 35, 3-Amino-4-butyryl-5-methyl-2-phenylpyrrole hydrochloride] | 500 mg/kg |  |  |  | 32.4% | 42% |  | 
18 | CC(=O)c1c(C)[nH]c(-c2ccccc2)c1N(C)C [Example 43, 4-Acetyl-3-dimethylamino-5-methyl-2-phenylpyrrole] | > 1000 mg/kg |  |  |  |  | 25.3% | 45.6% | 
19 | CC(=O)c1c(C)[nH]c(-c2ccccc2)c1N=Cc1ccc(Cl)cc1 [Example 45, 4-Acetyl-3-(p-chlorobenzylideneamino)-5-methyl-2-phenylpyrrole] | > 1000 mg/kg |  |  |  | 23.9% | 47.9% | 68.2% | 
20 | CC(=O)c1c(C)[nH]c(-c2ccccc2)c1N=Cc1ccccc1 [Example 46, 4-Acetyl-3-benzylideneamino-5-methyl-2-phenylpyrrole] | > 1000 mg/kg |  |  | 23.9% | 35.2% | 47.9% | 69% | 
21 | CC(=O)c1c(N=Cc2ccccc2)c(-c2ccccc2)n(C)c1C [Example 49a, 4-acetyl-3-benzylideneamino-1,5-dimethyl-2-phenylpyrrole] | > 1000 mg/kg |  |  |  |  | 31% | 53.1% | 
22 | CC(=O)c1c(N)c(-c2ccccc2)n(C)c1C [Example 49b, 4-Acetyl-3-amino-1,5-dimethyl-2-phenyl-pyrrole] | > 1000 mg/kg |  |  |  | 11% | 34.3% | 52.7% | 
23 | CC(=O)c1c(N(C)C)c(-c2ccccc2)n(Cc2ccccc2Cl)c1C [Example 53, 4-Acetyl-1-(o-chlorobenzyl)-5-methyl-3-dimethylamino-2-phenylpyrrole] | > 1000 mg/kg |  |  |  |  | 30% | 37.1% | 
24 | CC(=O)c1c(N(C)C)c(-c2ccccc2)n(Cc2ccc(Cl)cc2)c1C [Example 54, 4-Acetyl-1-(p-chlorobenzyl)-5-methyl-3-dimethylamino-2-phenylpyrrole] | > 1000 mg/kg |  |  |  |  | 38% | 47.6% | 
25 | COC(=O)c1c(C(N)=O)[nH]c(-c2ccccc2)c1N [Example 55, 3-Amino-5-carbamoyl-4-carbomethoxy-2-phenyl-pyrrole] | 1000 mg/kg |  |  |  | 27.1% | 41.4% | 56.3% | 
